Here are results for one compound from article PMC9408991, “Antitumor Effects of a New Retinoate of the Fungal Cytotoxin Illudin M in Brain Tumor Models” (International Journal of Molecular Sciences, 2022).

Series [1] in a line: Stability in cell medium (DMEM) by HPLC. Type of series: physicochemical. The following applies: for Detected compound 2 in medium / Detected free 1 in the sample of 2 / Detected free retinoic acid in the sample of 2: sample of 2 in DMEM. On the procedure:
The stability of compound 2 in medium (DMEM) was investigated for the indicated times (Table S1). For the preparation of the calibration samples, stock solutions of the test compounds (1 mg /mL) in MeCN were initially made. The sample was diluted to 0.2 mg/mL in a mixture of MeCN/H2O (4:1), whereof 20 µL were taken and injected into the column. For HPLC analysis, a Prontosil 120-5-C18 ace EPS 5 µm column was applied, and MeCN/H2O + 0.1 % glacial acetic acid was used as eluent. Chromatography was run from 7030 to 9010 within 3 […]
Table S1. Stability of compound 2 in medium.
Sample Detected Compounds (in µM)

Series [2] concerns NE-4C neural stem cells. Kind of series: Neuronal differentiation of NE-4C neural stem cells (β-tubulin III staining). The class given is cell-based, mouse. On the procedure: NE-4C cells and their differentiated progeny neurons can be immunohistochemically distinguished by the presence of β-tubulin III only in the latter (Figure 3).
(§1) Astroglia cells grown on poly-L-lysine-coated glass cover slips were fixed with 4% paraformaldehyde in PBS for 20 min at room temperature and then permeabilized with Triton X-100 (0.1% v/v in PBS; 5 min). Nonspecific antibodies were blocked by incubation with 3% FBS in PBS (room temperature, 1 h). α-GFAP antibody (rabbit, DAKO) was used in a dilution of 1:2000 and was visualized by anti-rabbit IgG Alexa 594 (1:1000). DAPI (4′,6-diamidino-2-phenylindole) was used for nuclei staining. Fluorescence images were captured manually on a Zeiss Axiovert 200 M microscope fitted with 20- to 60-fold zoom and a Zeiss AxioCam MRm digital camera. Further applied antibodies were tubulin III (Sigma T5076), used at a dilution of 1:1000, and Annexin V. Cy3.18 (Sigma A4963).

Series [3] has as its system U87 glioma cells. Description: Apoptosis of U87 glioma cells (calcein/Annexin V-Cy3). The class given is cell-based, human. The following applies: between 1 and 10 µM, 48 h. On the procedure: as §1
Figure 6 U87 glioma cells undergo apoptosis upon 48 h treatment with 10 µM of 2. Cells in the early stages of apoptosis show calcein (green)/Annexin V-Cy3 (red) double labeling. Scale bars: 50 µm; 20 µm for inserts.

In series [4] the test system is non-neural cancer cell lines. Kind of series: MTT assay, summary over non-neural cancer cell lines. The class given is cell-based, human. The following applies: with the exception of MCF-7^+Topo. The procedure:
Non-GBM cells (5 × 10^4 cells/mL, 100 µL/well) were grown in 96-well plates for 24 h. Then, they were treated with various concentrations of the test compounds or vehicle (DMSO, or EtOH) for 72 h at 37 °C. After the addition of 12.5 µL of a 0.5% MTT solution in PBS, the cells were incubated for 3 h at 37 °C so that the water-soluble MTT could be converted to formazan crystals. Then, the plates were centrifuged (300× g, 5 min, 4 °C), the medium withdrawn, and the formazan dissolved in 25 µL of DMSO containing 10% sodium dodecylsulfate (SDS) and 0.6% acetic acid for at least 2 h at 37 °C. In the case of the HL60 cells, after 2 h, the precipitate of formazan crystals was redissolved in a 10% solution of SDS in DMSO containing 0.6% acetic acid.
A general note: Tetrazolium assays rely on reduction of a dye to a coloured formazan, in cell work by metabolically active cells.

`CC1=C(/C=C/C(C)=C/C=C/C(C)=C/C(=O)O[C@@H]2C3=C(C)C4(CC4)[C@@](C)(O)C(=O)C3=CC2(C)C)C(C)(C)CCC1` [Compound 2, illudin M retinoate]: the “stability in cell medium” value in series [1] (cell medium) is “high stability”. The “Detected compound 2 in medium” value is on record as 3.92 µM in series [1] (0 h), 3.98 µM in series [1] (20 h), 3.85 µM in series [1] (48 h) and 3.94 µM in series [1] (144 h). The “Detected free 1 in the sample of 2” value in series [1] (0 h), in series [1] (20 h), in series [1] (48 h) and in series [1] (144 h) was less than 0.01 µM each time. Moreover, the “Detected free retinoic acid in the sample of 2” value in series [1] (0 h), in series [1] (20 h), in series [1] (48 h) and in series [1] (144 h) was less than 0.01 µM each time. Moreover, in series [2] (10 nM, β-tubulin III staining), the “differentiation of NE-4C stem cells to neurons” value is reported as “did not elicit differentiation”. Moreover, in series [2] (concentrations as high as 1 µM), the “neuronal differentiation of NE-4C neural stem cells” value is “did not induce neuronal differentiation”. In series [3], the “apoptosis of U87 glioma cells” value is recorded as “undergoing rapid apoptosis”. For the same compound, in series [4], the “fold less efficacious than 1” value came to 100 fold.
